Data published in US7446079B2, “Perfumes for rinse-off systems” (Givaudan Fragrances Corporation, priority 2005, dated 2008).
Like-named read-outs stand apart in the source and are kept apart here.

Legend:
[1] = GC-MS headspace release profile of Tropical Fruit perfume in shampoo, 1/100 dilution in water; type: physicochemical
Experimental: A 10 gram sample of formulation and fragrance was added to an empty 1000 ml pyrex beaker. This beaker was then filled with 1000 ml of 120 F tap water. Beaker with diluted shampoo sample was then immediately placed into a semi-enclosed plexiglass chamber.
Headspace Sampling: Once beaker was placed into chamber a Carboxan SPME field fiber was held at the top-side opening of the chamber over the beaker containing the sample. […] […] Top of plexiglass chamber was held open for entire 5 minutes of headspace sampling.

[2] = in water, cited from earlier work; for exp ODT (ppb) water: experimental values from the Booleans database

For `CCCCCCC(C=O)=Cc1ccccc1` [HEXYL CINNAMIC ALDEHYDE], the “GC Abundance” value ([1]; headspace at 40 seconds) is given as 2000, the “GC Abundance” value ([1]; headspace at 50 seconds) is given as 9000 and the “ODT (ppb)” value ([2]; Table 13) is given as “less than 50 ppb”.

In the case of `CC(=O)C=CC1=C(C)CCCC1(C)C` [IONONE BETA PURE, 4-(2,6,6-Trimethyl-1-cyclohexen-1-yl)-3-buten-2-one], the “GC Abundance” value ([1]; headspace at 30 seconds) is reported as 2000, the “GC Abundance” value ([1]; headspace at 40 seconds) is reported as 10000 and the “GC Abundance” value ([1]; headspace at 50 seconds) is reported as 18000. For the same compound, the “ODT (ppb)” value ([2]; Table 9) was “less than 50 ppb”, the “ODT (ppb)” value ([2]; Table 11) was “less than 50 ppb” and the “ODT (ppb)” value ([2]; Table 13) was “less than 50 ppb”. The “exp ODT (ppb) water” value [2] was 4-6 ppb.

In the case of `C=CC(C)(O)CCC=C(C)C` (centres unmarked) [LINALOOL], the “GC Abundance” value ([1]; headspace at 10 seconds) is reported as 500, the “GC Abundance” value ([1]; headspace at 20 seconds) is reported as 18000 and the “GC Abundance” value ([1]; headspace at 30 seconds) is reported as 18000. For the same compound, the “GC Abundance” value ([1]; headspace at 40 seconds) was 18000, the “GC Abundance” value ([1]; headspace at 50 seconds) was 18000 and the “ODT (ppb)” value ([2]; Table 9) was “less than 50 ppb”. The “ODT (ppb)” value ([2]; Table 11) was “less than 50 ppb” and the “ODT (ppb)” value ([2]; Table 13) was “less than 50 ppb”.

With `CCCC(C)C(=O)OCC` (centres unmarked) [MANZANATE, Ethyl 2-methylpentanoate] the “GC Abundance” value ([1]; headspace at 10 seconds) was 1000, the “GC Abundance” value ([1]; headspace at 20 seconds) was 4000 and the “GC Abundance” value ([1]; headspace at 30 seconds) was 4000. For the same compound, the “GC Abundance” value ([1]; headspace at 40 seconds) was 3000, the “GC Abundance” value ([1]; headspace at 50 seconds) was 1500 and the “exp ODT (ppb) water” value [2] was 0.0030 ppb.

For `CC(C)=CC1CC(C)CCO1` (stereo not drawn) [ROSE OXIDE (HIGH CIS), Tetrahydro-4-methyl-2-(2-methylpropen-1-yl)pyran], the “GC Abundance” value ([1]; headspace at 20 seconds) was 10000, the “GC Abundance” value ([1]; headspace at 30 seconds) was 14000 and the “GC Abundance” value ([1]; headspace at 40 seconds) was 14000. The “GC Abundance” value ([1]; headspace at 50 seconds) was 14000 and the “exp ODT (ppb) water” value [2] was 0.5 ppb.

In the case of `CC1=CC(C)C(C=O)CC1` (centres unmarked) [TRIPLAL], the “GC Abundance” value ([1]; headspace at 10 seconds) is reported as 1000, the “GC Abundance” value ([1]; headspace at 20 seconds) is reported as 14000 and the “GC Abundance” value ([1]; headspace at 30 seconds) is reported as 14000. The “GC Abundance” value ([1]; headspace at 40 seconds) was 10000, the “GC Abundance” value ([1]; headspace at 50 seconds) was 6000 and the “ODT (ppb)” value ([2]; Table 9) was “less than 50 ppb”. For the same compound, the “ODT (ppb)” value ([2]; Table 11) was “less than 50 ppb” and the “ODT (ppb)” value ([2]; Table 13) was “less than 50 ppb”.

With `CC(=O)OC1CCCCC1C(C)(C)C` (centres unmarked) [VERDOX] the “GC Abundance” value ([1]; headspace at 20 seconds) was 5000, the “GC Abundance” value ([1]; headspace at 30 seconds) was 14000 and the “GC Abundance” value ([1]; headspace at 40 seconds) was 18000. For the same compound, the “GC Abundance” value ([1]; headspace at 50 seconds) was 20000, the “ODT (ppb)” value ([2]; Table 9) was “less than 50 ppb” and the “ODT (ppb)” value ([2]; Table 11) was “less than 50 ppb”. For the same compound, the “ODT (ppb)” value ([2]; Table 13) was “less than 50 ppb”.

In the case of `CC=CC(=O)C1C(C)=CCCC1(C)C` (stereo not drawn) [alpha-DAMASCONE, α-1-(2,6,6-Trimethyl-2-cyclohexen-1-yl)-2-buten-1-one], the “GC Abundance” value ([1]; headspace at 40 seconds) is given as 1000, the “GC Abundance” value ([1]; headspace at 50 seconds) is given as 5000 and the “exp ODT (ppb) water” value [2] is given as 1.5 ppb.
